# Reference: publication PMC11122421 (Marine Drugs, 2024)
# Values joined by “and” are separate entries in the source; they are usually repeats but may differ in a detail not shown here. Equal values may be shown once. Where a SMILES comes first, the peptide text is derived from it. Bridges are numbered along the chain shown (N, C = ends). The star is where a group is joined. X2 = CN(C)c1ccc2c(-c3cc(C(=O)*)ccc3C(=O)[O-])c3ccc(=[N+](C)C)cc-3oc2c1; X1 = C[N+]1=C(/C=C/C=C2/N(CCCCCC(=O)*)c3ccccc3C2(C)C)C(C)(C)c2ccccc21; BODIPY(FL) = CC1=CC(C)=[N+]2C1=Cc1ccc(CCC(=O)*)n1[B-]2(F)F
# What was measured:
# rat α7 nAChRs = target: T1, rat α7 nAChRs (Rattus norvegicus, UniProt Q05941); assay: cell-based; format: cell-based
# T1 construct: expressed in transfected cells; host or cells: Xenopus laevis oocytes injected with cRNA; plasmids from J. Michael McIntosh (University of Utah)
# rat α6/α3β4 nAChRs = target: T2, rat α6/α3β4 nAChRs (Rattus norvegicus, UniProt P04757+P12392+P43143); format: cell-based
# T2 construct: expressed in transfected cells; host or cells: Xenopus laevis oocytes injected with cRNA; plasmids from J. Michael McIntosh (University of Utah)
# rat α3β2 nAChR = target: T3, rat α3β2 nAChR (Rattus norvegicus, UniProt P04757+P12390); assay: cell-based
# T3 construct: expressed in transfected cells; host or cells: Xenopus laevis oocytes injected with cRNA; plasmids from J. Michael McIntosh (University of Utah)
# [1] = not given; remark: listed apart in the source
# [2] = target: T4, α7 nAChRs in rat brain slices (Rattus norvegicus, UniProt Q05941)
# T4 construct: from tissue; host or cells: frozen brain slices of ten-week-old rats (hippocampus, striatum, cortex, cerebellum)
# T4 sequence (Q05941 23-502): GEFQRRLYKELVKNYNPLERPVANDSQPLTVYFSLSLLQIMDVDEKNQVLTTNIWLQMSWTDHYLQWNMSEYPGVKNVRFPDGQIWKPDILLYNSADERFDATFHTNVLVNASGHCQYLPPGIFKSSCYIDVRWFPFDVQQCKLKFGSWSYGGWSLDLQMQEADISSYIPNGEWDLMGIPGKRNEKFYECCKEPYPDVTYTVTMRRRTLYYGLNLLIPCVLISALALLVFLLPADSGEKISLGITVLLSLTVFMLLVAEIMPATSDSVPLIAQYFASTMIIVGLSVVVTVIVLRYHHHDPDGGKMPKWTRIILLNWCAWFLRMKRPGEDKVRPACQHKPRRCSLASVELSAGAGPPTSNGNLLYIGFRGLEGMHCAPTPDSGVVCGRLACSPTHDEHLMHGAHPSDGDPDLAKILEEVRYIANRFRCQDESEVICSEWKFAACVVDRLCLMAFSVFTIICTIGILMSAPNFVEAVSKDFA
# T3 sequence (P04757 26-499 limits assumed): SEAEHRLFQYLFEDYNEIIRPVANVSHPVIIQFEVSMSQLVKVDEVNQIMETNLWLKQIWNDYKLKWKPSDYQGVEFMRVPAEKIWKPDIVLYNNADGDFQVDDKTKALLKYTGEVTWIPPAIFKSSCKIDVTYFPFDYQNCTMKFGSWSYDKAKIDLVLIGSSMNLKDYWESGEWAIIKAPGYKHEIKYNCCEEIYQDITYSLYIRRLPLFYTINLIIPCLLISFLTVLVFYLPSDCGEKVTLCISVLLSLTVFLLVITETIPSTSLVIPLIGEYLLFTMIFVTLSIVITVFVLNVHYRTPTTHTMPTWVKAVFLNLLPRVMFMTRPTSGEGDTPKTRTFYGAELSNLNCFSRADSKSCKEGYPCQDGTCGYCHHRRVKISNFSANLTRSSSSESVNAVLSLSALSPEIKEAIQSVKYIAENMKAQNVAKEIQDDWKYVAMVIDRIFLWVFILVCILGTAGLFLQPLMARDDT
# T3 sequence (P12390 25-500 limits assumed): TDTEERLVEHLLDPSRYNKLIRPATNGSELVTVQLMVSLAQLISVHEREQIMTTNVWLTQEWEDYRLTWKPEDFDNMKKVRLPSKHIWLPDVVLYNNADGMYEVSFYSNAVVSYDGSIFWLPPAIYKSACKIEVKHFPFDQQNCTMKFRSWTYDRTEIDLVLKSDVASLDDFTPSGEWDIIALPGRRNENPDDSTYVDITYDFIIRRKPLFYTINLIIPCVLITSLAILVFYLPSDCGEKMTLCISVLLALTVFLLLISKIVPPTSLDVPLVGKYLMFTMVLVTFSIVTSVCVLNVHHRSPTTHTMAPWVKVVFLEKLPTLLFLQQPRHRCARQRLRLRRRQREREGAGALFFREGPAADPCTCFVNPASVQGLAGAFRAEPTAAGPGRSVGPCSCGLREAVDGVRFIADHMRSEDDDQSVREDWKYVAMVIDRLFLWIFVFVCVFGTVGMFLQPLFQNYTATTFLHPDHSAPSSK
# T1 sequence (Q05941 23-502): as the sequence (Q05941 23-502) above
# T2 sequence (P43143+P04757 fused with the stated changes): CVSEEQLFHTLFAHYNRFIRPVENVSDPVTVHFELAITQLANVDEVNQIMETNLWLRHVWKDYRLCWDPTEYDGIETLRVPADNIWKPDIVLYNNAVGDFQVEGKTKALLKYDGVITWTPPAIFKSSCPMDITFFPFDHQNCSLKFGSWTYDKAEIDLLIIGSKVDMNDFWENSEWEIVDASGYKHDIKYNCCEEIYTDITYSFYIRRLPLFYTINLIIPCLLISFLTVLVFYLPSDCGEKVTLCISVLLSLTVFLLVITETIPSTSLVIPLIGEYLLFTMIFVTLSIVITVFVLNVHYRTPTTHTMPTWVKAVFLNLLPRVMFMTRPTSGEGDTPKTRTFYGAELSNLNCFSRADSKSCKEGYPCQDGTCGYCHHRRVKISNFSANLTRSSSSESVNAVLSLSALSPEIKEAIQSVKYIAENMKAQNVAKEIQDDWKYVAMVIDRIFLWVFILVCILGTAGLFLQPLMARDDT
# T2 sequence (P12392 21-495): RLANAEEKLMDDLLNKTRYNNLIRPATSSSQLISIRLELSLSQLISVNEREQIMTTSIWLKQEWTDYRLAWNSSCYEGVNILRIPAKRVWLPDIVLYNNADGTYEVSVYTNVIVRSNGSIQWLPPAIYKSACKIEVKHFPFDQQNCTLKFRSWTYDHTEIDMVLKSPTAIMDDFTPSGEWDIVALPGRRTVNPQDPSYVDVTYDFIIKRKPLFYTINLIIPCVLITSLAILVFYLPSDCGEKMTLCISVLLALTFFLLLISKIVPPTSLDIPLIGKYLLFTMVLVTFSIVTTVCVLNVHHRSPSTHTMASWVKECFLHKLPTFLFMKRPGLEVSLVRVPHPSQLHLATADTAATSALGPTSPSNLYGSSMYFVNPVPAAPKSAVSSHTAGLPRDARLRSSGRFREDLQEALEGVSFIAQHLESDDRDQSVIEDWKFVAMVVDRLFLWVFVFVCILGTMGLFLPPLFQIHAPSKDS
SMILES,IC50 (rat α7 nAChRs),inhibition rate of ACh-evoked current (rat α7 nAChRs),inhibition rate (rat α6/α3β4 nAChRs),excitation wavelength (Ex),inhibition rate (rat α3β2 nAChR),IC50 (rat α3β2 nAChR),emission wavelength (Em) [1],Hill Slope (rat α7 nAChRs),time to ~90% current restoration after block (recovery/washout) (rat α7 nAChRs),fluorescence labelling of brain regions [2]
"CC1=CC(C)=[N+]2C1=Cc1ccc(CCC(=O)NCC(=O)N[C@H]3CSSC[C@@H]4NC(=O)[C@@H]5CCCN5C(=O)[C@@H]5CCCN5C(=O)[C@H](CC(N)=O)NC(=O)[C@H](CO)NC(=O)[C@H](CSSC[C@@H](C(N)=O)NC(=O)[C@H](Cc5c[nH]cn5)NC(=O)[C@H](CCC(=O)O)NC(=O)[C@H](Cc5c[nH]cn5)NC(=O)[C@H](C)NC4=O)NC3=O)n1[B-]2(F)F [LvIB-B] ({BODIPY(FL)}-GCCSNPPCAHEHC-NH2; disulfide 2-8, 3-13)",187 nM,96 ± 0.11%,0 ± 2%,505 nm,64 ± 4%,2550 nM and 10900 nM,510 nm,,,
"C[C@@H]1NC(=O)[C@@H]2CSSC[C@H](NC(=O)CNC(=O)CCCCCN3/C(=C/C=C/C4=[N+](C)c5ccccc5C4(C)C)C(C)(C)c4ccccc43)C(=O)N[C@@H](CSSC[C@@H](C(N)=O)NC(=O)[C@H](Cc3c[nH]cn3)NC(=O)[C@H](CCC(=O)O)NC(=O)[C@H](Cc3c[nH]cn3)NC1=O)C(=O)N[C@@H](CO)C(=O)N[C@@H](CC(N)=O)C(=O)N1CCC[C@H]1C(=O)N1CCC[C@H]1C(=O)N2 [LvIB-C] (X1-GCCSNPPCAHEHC-NH2; disulfide 2-8, 3-13)",298 nM,94 ± 0.20%,10 ± 0.3%,550 nm,50 ± 2%,10900 nM and 2550 nM,570 nm,1.39 (1.05–1.72),≤ 14 min,"distinct fluorescence distribution in the hippocampus, striatum, and cortex"
"C[C@@H]1NC(=O)[C@@H]2CSSC[C@H](NC(=O)CNC(=O)c3ccc(C(=O)[O-])c(-c4c5ccc(=[N+](C)C)cc-5oc5cc(N(C)C)ccc45)c3)C(=O)N[C@@H](CSSC[C@@H](C(N)=O)NC(=O)[C@H](Cc3c[nH]cn3)NC(=O)[C@H](CCC(=O)O)NC(=O)[C@H](Cc3c[nH]cn3)NC1=O)C(=O)N[C@@H](CO)C(=O)N[C@@H](CC(N)=O)C(=O)N1CCC[C@H]1C(=O)N1CCC[C@H]1C(=O)N2 [LvIB-R] (X2-GCCSNPPCAHEHC-NH2; disulfide 2-8, 3-13)",643 nM,87 ± 0.24%,,555 nm,,,580 nm,0.89 (0.67–1.14),≤ 14 min,"distinct fluorescence distribution in the hippocampus, striatum, and cortex"
